These results are taken from patent US20230009323A1, “COMPOUNDS AND METHODS FOR THE TREATMENT OF CRYPTOSPORIDIOSIS” (The Broad Institute, Inc., priority 2019, published 2023).

One data set concerns C. parvum. Briefly: Host cell invasion assay. The data set is classed as cell-based, Cryptosporidium parvum.
The nature of another data set: HEK293T cytotoxicity. Particulars: human, HEK293T cells. The data set is classed as cell-based.
For data set [1], the system named is C. parvum parental WT (Bunchgrass). Put plainly: In vitro drug susceptibility in HCT-8 cells, luminescence, parent strain. The data set is classed as cell-based. Particulars: Cryptosporidium parvum; 48 h, HCT-8, luciferase activity. The protocol:
The in vitro drug susceptibility assay using transgenic parasites expressing Nluc was performed as described in Vinyak et al. Briefly, host intestinal epithelial adenocarcinoma (HCT-8) cells grown in 96-well plates were infected with purified transgenic Nluc-expressing oocysts (1,000 oocysts per well) and incubated with different concentrations of Compound 11 for 48 hours. Culture supernatant was discarded from the wells after 48 hours, and 200 μl of NanoGlo lysis buffer containing 1:50 of NanoGlo substrate (Promega) was added to the wells. Lysates were transferred to white 96-well plates and luminescence was measured on a Glomax luminescence reader (Promega). EC50 values were calculated in GraphPad Prism software v7.
Oocysts from the mutant (mut482V) and wild type (wtL482) transgenic lines were purified as well as the parent strain (Bunchgrass) used to generate the transgenics. Sporozoites were excised from these oocysts and used to infect 96 well format HCT-8 cultures to perform in vitro drug susceptibility assays. Cultures were incubated for 48 hours in the presence of varying concentrations of Compound 11 and parasite growth was measured by establishing whole well luciferase activity to calculate EC50 values for each strain.

The next data set can be described thus: HepG2 cytotoxicity. As to conditions: human, HepG2 cells. It is filed as cell-based.
Data set [2] relates to C. parvum Iowa isolate (Bunch Grass Farm). Put plainly: C. parvum Iowa isolate (Bunch Grass Farm) growth in HCT-8 cells, high-content microscopy. The data set is classed as cell-based. Particulars: Cryptosporidium parvum. As for the experimental part:
A high-content microscopy assay was used to measure activity of compounds against C. parvum grown in the human adenocarcinoma cell line HCT-8 (ATCC) as disclosed in Bessoff, K., et al., Antimicrobial agents and chemotherapy 57, 1804-1814, doi:10.1128/AAC.02460-12 (2013), hereby incorporated by reference in its entirety. HCT-8 cells were cultured in 384-well clear-bottomed plates in 50 μL per well of RPMI 1640 medium ([…]), 120 U·mL^−1 penicillin, and 120 μg·mL^−1 streptomycin (ATCC) at 37° C. under 5% CO2. For compound screening and follow-up SAR studies, confluent cell monolayers were infected with C. parvum Iowa isolate oocysts [Bunch Grass Farm (Deary, Id.); ˜5,500 oocysts per well] after inducing excystation by treatment for 10 min at 37° C. with 10 mM HCl and then 10 min at 16° C. in 2 mM sodium taurocholate. Compounds were added at the indicated concentrations 3 h after monolayer infection. After incubation (37° C., 5% CO2) for 48 h, the cells were washed three times with PBS containing 111 mM D-Galactose and fixed by adding an equal volume of 8% formaldehyde in PBS. Cell monolayers were then prepared for microscopy by permeabilizing with 0.1% Triton X-100, washing three times with PBS with 0.1% Tween 20, blocking with 4% bovine serum albumin (BSA) in PBS for 2 h at 37° C. or 4° C. overnight, and staining parasitophorous vacuoles with 1.33 μg·mL^−1 of fluorescein-labeled Vicia villosa lectin (Vector Laboratories) diluted in 1% BSA in PBS with 0.1% Tween 20 for 1 h at 37° C. DNA was then stained by adding Hoechst 33258 (AnaSpec) at a final concentration of 0.09 mM diluted in water, followed by washing five times with PBS containing 0.1% Tween 20. Images were acquired using a Nikon Eclipse TE2000 epifluorescence microscope with an automated stage that was programmed using NIS-Elements Advanced Research software (Nikon) to focus on the center of each well and take a 3×3 composite image using an EXi Blue fluorescence microscopy camera (QImaging) with a 20× objective (numerical aperture 0.45). Nucleus and parasite images were exported separately as tif files and analyzed using NIH ImageJ and previously reported macros, and data analysis and graphing were done using GraphPad Prism software, version 6.01. […]

The subject of data set [3] is C. parvum Iowa isolate (Bunch Grass Farms). Briefly: C. parvum time-kill curve assay in HCT-8 cells. It is filed as cell-based, Cryptosporidium parvum. The protocol:
Time-kill curve assays were performed in 384-well plates using C. parvum Iowa isolate oocysts (Bunch Grass Farms, Deary, Id.) following infection of HCT-8 cell monolayers as described in Jumani, R. S. et al. Antimicrobial agents and chemotherapy 62, e01505-01517 (2018), hereby incorporated by reference in its entirety. […] Single-phase exponential decay curves were fit using GraphPad Prism software version 6.01 after normalizing the percentage of host cells infected to the vehicle control value at each time point, which isolates the effect of compound treatment from the spontaneous reduction in parasite numbers that occurs in this culture system.

The structures appear in SMILES notation. Read-outs that look alike come from different tables or passages of the source.

The term CC50 denotes the concentration that lowers cell viability or growth by half. Low values mean harm at low concentration, high ones better tolerance by the cells. Usually EC50 stands for the concentration at which the effect is half-maximal.

As for `COc1ccc(NC(=O)N2CCCCN3[C@H](CN(C)C)[C@H](c4ccc(C#Cc5ccccc5)cc4)[C@@H]3C2)cc1` [Compound 11, (8R,9S,10S)-10-((dimethylamino)methyl)-N-(4-methoxyphenyl)-9-(4-(phenylethynyl)phenyl)-1,6-diazabicyclo[6.2.0]decane-6-carboxamide], the “effect on host cell invasion” value in the data set on C. parvum is on record as “No effect”. Besides, the CC50 in “HEK293T cytotoxicity” and in the data set “HepG2 cytotoxicity” was 5000 nM each time. Also, the EC50 is 29 nM in data set [1]; 9 nM in data set [2] (read-out: C. parvum (Iowa) (1% FBS) BGF EC50); 73 nM in data set [2] (read-out: C. parvum (Iowa) (10% FBS) BGF EC50); less than 73 nM in data set [2] (serum not given, read-out: C. parvum EC50). For the same molecule, the figures for the “parasites per nucleus at 80 h” value in data set [3] (compound at EC50) and in data set [3] (compound at EC90) were approximately 60% and approximately 30%, respectively. In addition, the “time required to eliminate 99.9% of parasites” value in data set [3] (normalized to vehicle control) was approximately 95 h.
